Structures can show the parent of a compound that is named as a salt.
Q: With `C[C@H](OP(=O)(O)O[C@H]1CCCO[C@@H]1COC(=O)CCc1ccccc1OCc1cccc(Oc2ccccc2)c1)[C@H](N)C(=O)O` (as salt: TFA) [Example 29, (2S,3S)-2-amino-3-[hydroxy-((2R,3S)-2-{3-[2-(3-phenoxybenzyloxy)-phenyl]-propionyloxymethyl}-tetrahydro-pyran-3-yloxy)-phosphoryloxy]-butyric acid] as the compound, how does the melting point read?
A: 42 to 54 °C

Q: For `CCCCCCCC/C=C\CCCCCCCC(=O)OC[C@@H](COCC)OP(=O)(O)OC[C@H](N)C(=O)O` (as salt: TFA) [Example 6, (9Z)-Octadeca-9-enoic acid (2R)-2-[((2S)-2-amino-2-carboxy-ethoxy)-hydroxy-phosphoryloxy]-3-ethoxypropyl ester], which melting point is on record?
A: 130.2 to 131 °C

Q: With `CCCCCCCCCCCOc1ccccc1CCC(=O)O[C@H]1COCC[C@@H]1OP(=O)(O)OC[C@H](N)C(=O)O` (as salt: TFA) [Example 11, (2S)-2-amino-3-(hydroxy-{(3S,4S)-3-[3-(2-undecyloxy-phenyl)-propionyloxy]-tetrahydro-pyran-4-yloxy}-phosphoryloxy)-propionic acid] as the compound, how does the melting point read?
A: 132.8 to 134.8 °C

Q: Which melting point does the source give for `CCCCCCCCCCCOc1ccccc1CCC(=O)OC[C@H]1OCCC[C@@H]1OP(=O)(O)OC[C@H](N)C(=O)O` (as salt: TFA) [Example 21, (2S)-2-amino-3-(hydroxyl-{(2R,3S)-2-[3-(2-undecyloxy-phenyl)-propionyloxymethyl]-tetrahydro-pyran-3-yloxy}-phosphoryloxy)-propionic acid] here?
A: 70 to 86 °C

Q: With `CCCCCCCC/C=C\CCCCCCCC(=O)OC[C@@H](COC)OP(=O)(O)OC[C@H](N)C(=O)O` (as salt: TFA) [Example 4, (9Z)-Octadeca-9-enoic acid (2R)-2-[((2S)-2-amino-2-carboxy-ethoxy)-hydroxy-phosphoryloxy]-3-methoxy-propyl ester] as the compound, how does the melting point read?
A: 192.5 to 196 °C

Q: With `CCCCCCCCCCCOc1ccccc1CCC(=O)O[C@@H]1COCC[C@H]1OP(=O)(O)OC[C@H](N)C(=O)O` (as salt: TFA) [Example 9, (2S)-2-amino-3-(hydroxyl-{(3R,4R)-3-[3-(2-undecyloxy-phenyl)-propionyloxy]-tetrahydropyran-4-yloxy}-phosphoryloxy)-propionic acid] as the compound, how does the melting point read?
A: 122 to 123 °C

Q: Which melting point does the source give for `CCCCCCCC/C=C\CCCCCCCC(=O)OC[C@H](COC)OP(=O)(O)OC[C@H](N)C(=O)O` (as salt: TFA) [Example 5, (9Z)-Octadeca-9-enoic acid (2S)-2-[((2S)-2-amino-2-carboxy-ethoxy)-hydroxy-phosphoryloxy]-3-methoxy-propyl ester] here?
A: 149 to 150.5 °C

Q: For `CCCCCCCCCCCOc1ccccc1CCC(=O)O[C@H]1CCOC[C@@H]1OP(=O)(O)OC[C@H](N)C(=O)O` (as salt: TFA) [Example 10, (2S)-2-amino-3-(hydroxy-{(3S,4S)-4-[3-(2-undecyloxy-phenyl)-propionyloxy]-tetrahydro-pyran-3-yloxy}-phosphoryloxy)-propionic acid], which melting point is on record?
A: 96.5 to 98.5 °C

Q: For `C[C@H](OP(=O)(O)OC[C@H]1OCCC[C@@H]1OC(=O)CCc1ccccc1OCc1cccc(Oc2ccccc2)c1)[C@H](N)C(=O)O` (as salt: TFA) [Example 27, (2S,3S)-2-amino-3-[hydroxyl-((2R,3S)-3-{3-[2-(3-phenoxy-benzyloxy)-phenyl]-propionyloxy}-tetrahydro-pyran-2-ylmethoxy)-phosphoryloxy]-butyric acid], which melting point is on record?
A: 75 to 86 °C

Q: With `CCCCCCCC/C=C\CCCCCCCC(=O)OC[C@H]1OCCC[C@H]1OP(=O)(O)OC[C@H](N)C(=O)O` (as salt: TFA) [Example 15, (9Z)-Octadeca-9-enoic acid (2R,3R)-3-[((2S)-2-amino-2-carboxy-ethoxy)-hydroxy-phosphoryloxy]-tetrahydropyran-2-ylmethyl ester] as the compound, how does the melting point read?
A: 70 to 80 °C

Q: With `C[C@H](COC(=O)CCc1ccccc1OCc1cccc(Oc2ccccc2)c1)OP(=O)(O)OC[C@H](N)C(=O)O` (as salt: TFA) [Example 3, (2S)-2-amino-3-[hydroxyl-((1R)-1-methyl-2-{3-[2-(3-phenoxy-benzyloxy)-phenyl]-propionyloxy}-ethoxy)-phosphoryloxy]-propionic acid] as the compound, how does the melting point read?
A: 143.5 to 144.5 °C

Q: Which melting point does the source give for `N[C@@H](COP(=O)(O)OC[C@H]1OCCC[C@H]1OC(=O)CCc1ccccc1OCc1cccc(Oc2ccccc2)c1)C(=O)O` (as salt: TFA) [Example 18] here?
A: 65 to 75 °C

Q: Which melting point does the source give for `CCCCCCCC/C=C\CCCCCCCC(=O)OC[C@H]1OCCC[C@@H]1OP(=O)(O)OC[C@H](N)C(=O)O` (as salt: TFA) [Example 20, (9Z)-Octadeca-9-enoic acid (2R,3S)-3-[((2S)-2-amino-2-carboxy-ethoxy)-hydroxy-phosphoryloxy]-tetrahydro-pyran-2-ylmethyl ester] here?
A: 70 to 80 °C

Q: With `COC[C@H](COC(=O)CCc1ccccc1OCc1cccc(Oc2ccccc2)c1)OP(=O)(O)OC[C@H](N)C(=O)O` (as salt: TFA) [Example 31, (2S)-2-amino-3-[hydroxy-((1R)-1-methoxymethyl-2-{3-[2-(3-phenoxy-benzyloxy)-phenyl]-propionyloxy}-ethoxy)-phosphoryloxy]-propionic acid] as the compound, how does the melting point read?
A: 51.5 to 53.5 °C

Q: For `C[C@H](OP(=O)(O)O[C@@H]1CCCO[C@@H]1COC(=O)CCc1ccccc1OCc1cccc(Oc2ccccc2)c1)[C@H](N)C(=O)O` (as salt: TFA) [Example 30, (2S,3S)-2-amino-3-[hydroxy-((2R,3R)-2-{3-[2-(3-phenoxy-benzyloxy)-phenyl]-propionyloxymethyl}-tetrahydro-pyran-3-yloxy)-phosphoryloxy]-butyric acid], which melting point is on record?
A: 52 to 60 °C
